From patent US12398121B2 (Nuvation Bio Inc., priority 2018, dated 2025)

What was measured:
DNA-PK = molecular target: T1, DNA-PK (Homo sapiens, UniProt P78527); assay: DNA-PK inhibition (Reaction Biology HotSpot Kinase Assay, radioisotope filter binding); assay type: biochemical; conditions: 5 nM DNA-PK, 20 μM DNA-PKtide, 33P-ATP
T1 construct: purchased Invitrogen, Carlsbad, CA PR9107A

AR in LNCaP cytosol = molecular target: T2, AR in LNCaP cytosol (Homo sapiens, UniProt P10275, T878A); assay: AR binding assay (3H-methyltrienolone displacement)
T2 construct: endogenous in cells; host or cells: LNCaP cytosol
T2 sequence (P10275 1-920 T878A): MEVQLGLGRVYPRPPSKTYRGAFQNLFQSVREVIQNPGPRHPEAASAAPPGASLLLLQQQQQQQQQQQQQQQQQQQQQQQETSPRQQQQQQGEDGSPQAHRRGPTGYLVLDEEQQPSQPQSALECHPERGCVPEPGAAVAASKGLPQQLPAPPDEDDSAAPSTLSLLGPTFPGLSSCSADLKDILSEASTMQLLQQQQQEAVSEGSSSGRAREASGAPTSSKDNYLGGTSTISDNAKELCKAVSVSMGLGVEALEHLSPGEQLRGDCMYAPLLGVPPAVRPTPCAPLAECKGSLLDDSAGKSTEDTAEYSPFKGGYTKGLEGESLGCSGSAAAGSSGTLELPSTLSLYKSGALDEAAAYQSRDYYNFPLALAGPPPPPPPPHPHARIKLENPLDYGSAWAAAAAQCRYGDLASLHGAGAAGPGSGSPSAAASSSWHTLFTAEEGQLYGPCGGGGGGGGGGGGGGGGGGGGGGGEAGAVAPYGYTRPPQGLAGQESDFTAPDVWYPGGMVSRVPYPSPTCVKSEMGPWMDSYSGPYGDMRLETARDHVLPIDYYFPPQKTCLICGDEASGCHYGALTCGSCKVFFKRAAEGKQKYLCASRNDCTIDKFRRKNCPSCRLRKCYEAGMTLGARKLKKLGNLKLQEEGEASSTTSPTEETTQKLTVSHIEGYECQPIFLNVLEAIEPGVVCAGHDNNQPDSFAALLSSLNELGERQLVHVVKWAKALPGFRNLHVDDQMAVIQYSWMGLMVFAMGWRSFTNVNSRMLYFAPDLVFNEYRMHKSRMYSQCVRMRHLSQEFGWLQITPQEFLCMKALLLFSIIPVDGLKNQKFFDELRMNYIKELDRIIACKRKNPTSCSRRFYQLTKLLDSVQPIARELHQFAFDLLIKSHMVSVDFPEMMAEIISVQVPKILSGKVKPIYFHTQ
Description: The following methods are for evaluating the in vitro biology properties of the test articles. • a. RBC HotSpot Poly(ADP-ribose) Polymerases 1 (PARP1) and Poly(ADP-ribose) Polymerases 2 (PARP2) Assays: The assay principle is radioisotope-based filter binding assay where incorporation of radioisotope-labeled NAD^+ into the substrate captured on filter is detected after washout free NAD^+. Data were analyzed using Excel and GraphPad Prism software for IC50 curve fits. Each assay was conducted with PJ34 as a positive control. • i. PARP1 assay: Human recombinant PARP1 at a final concentration of 2.5 nM was combined with histone H4 (20 μM) and test articles at various concentrations in reaction buffer (50 mM Tris-HCL, pH 8.0, 50 mM NaCl, 10 mM MgCl2, 1 mM DTT, 1% DMSO, and 20 μg/mL activated DNA). The solution was inoculated for 20 min at room temperature and the reaction initiated by adding [adenylate-^32P]-Nicotinamide Adenine Dinucleotide, ^32P-NAD^+ at a final concentration of 10 μM. After incubation for 2 hour at room temperature, the reaction mixture was filtered and washed with 0.75% phosphoric acid for radioactivity detection. • ii. PARP2 assay: Human recombinant PARP2 at a final concentration of 2.5 nM was combined with histone H3 (20 μM) and test articles at various concentrations in reaction buffer (50 mM Tris-HCL, pH 8.0, 50 mM NaCl, 10 mM MgCl2, 1 mM DTT, 1% DMSO, and 20 μg/mL activated DNA). The solution was inoculated for 20 min at room temperature and the reaction was initiated by adding [adenylate-^32P]-Nicotinamide Adenine Dinucleotide, ^32P-NAD^+ at a final concentration of 10 μM. After incubation for 2 hour at room temperature, the reaction mixture was filtered and washed with 0.75% phosphoric acid for radioactivity detection. • b. AR binding assay: AR in LNCaP cytosol was used for determining the binding affinity of test articles and the reference compound—progesterone (Sigma, Cat: E2785, St. Louis, MO). IC50s were determined using 8 concentrations/compound. Cytosol was plated at 200 μg/well (100 μL) into a 96-well conical polypropylene plate (Agilent, Cat: 5042-1385, Santa Clara, CA) and mixed with 3 μL of test compound. After adding 100 μL of ^3H-methyltrienolone (PerkinElmer, Cat: NET590250UC, San Jose, CA), the plate was sealed and shaken at 300 rpm at 4° C. for 24 hours. Post incubation, 100 μL of radioligand adsorption buffer containing 10 mM Tris-HCl, pH 7.4; 1.5 mM EDTA; 1 mM DTT; 0.25% charcoal; 0.0025% dextran was added to individual well. Plate was shaken for 15 min at 4′C followed by centrifugation at 3000 rpm for 30 min at 4° C. 150 μL of supernatant was transferred into scint-tube (PerkinElmer, Cat: 6000192) and mixed with 2 mL of Ultima Gold Cocktail (PerkinElmer, Cat: 6013329). Radioactivity was counted using a TriCarb 2910 TR scintillation counter (PerkinElmer). Inhibition of the radioactivity by test articles were calculated using the equation below: % Inhibition=(1−(Assay well−Average_LC)/(Average_HC−Average_LC))×100%.
IC50 values were calculated and graphed using the model “log(inhibitor) vs. response—Variable slope” included in GraphPad Prism 5 (San Diego, CA). The Ki values were further calculated using the equation below where [L] was the radioligand concentration (1 nM) using in this study. Kd value was 0.332 nM. Ki=IC50/(1+[L]/Kd) c. AR transactivation: Human AR cloned into a CMV vector backbone was used for the transactivation study. HEK-293 cells were plated at 80,000 cells per well of a 24 well plate in DME+5% csFBS. Twenty four hours later, the cells were transfected using Lipofectamine (Invitrogen, Carlsbad, CA) with 0.25 μg GRE-LUC, 0.01 μg CMV-LUC (renilla luciferase) and 25 ng of the AR in OPTIMEM medium. The cells were treated 24 hrs after transfection with various ligands (10^−12 to 10^−5 M final concentrations) and luciferase assay were performed 48 hours after transfection. […]

| Compound | IC50 (DNA-PK) [nM] | Ki (AR in LNCaP cytosol) [nM] |
| --- | --- | --- |
| CCN1C(=O)CNc2ncc(-c3ccc(-c4ncn(CCCCCCNC(=O)c5ccc(N6C(=S)N(c7ccc(C#N)c(C(F)(F)F)c7)C(=O)C6(C)C)cc5F)n4)nc3C)nc21 [Compound 3.1, 4-(3-(4-cyano-3-(trifluoromethyl)phenyl)-5,5-dimethyl-4-oxo-2-thioxoimidazolidin-1-yl)-N-(6-(3-(5-(8-ethyl-7-oxo-5,6,7,8-tetrahydropyrazino[2,3-b]pyrazin-2-yl)-6-methylpyridin-2-yl)-1H-1,2,4-triazol-1-yl)hexyl)-2-fluorobenzamide] | > 10000 | 21 |
| CCN1C(=O)CN(CCCCCCNC(=O)c2ccc(N3C(=S)N(c4ccc(C#N)c(C(F)(F)F)c4)C(=O)C3(C)C)cc2F)c2ncc(-c3ccc(-c4nc[nH]n4)nc3C)nc21 [Compound 3.2, 4-(3-(4-cyano-3-(trifluoromethyl)phenyl)-5,5-dimethyl-4-oxo-2-thioxoimidazolidin-1-yl)-N-(6-(4-ethyl-6-(2-methyl-6-(1H-1,2,4-triazol-3-yl)pyridin-3-yl)-3-oxo-3,4-dihydropyrazino[2,3-b]pyrazin-1(2H)-yl)hexyl)-2-fluorobenzamide] | > 10000 | 19 |
